According to patent US20070281046A1, “Method for removing organic contaminants from Chinese herb medicines” (Committee on Chinese Medicine and Pharmacy, Department of …, priority 2006, published 2007):
Marks after values point to notes of the source that are not given here.

Tests used:
[1] = PCNB concentration after gamma irradiation in samples of P. quinquefolium and in methanol solution; format: physicochemical; conditions: for concentration of the remaining PCNB / concentration of the remaining PCNB as compared to before treatment: 2 ppm PCNB in methanol solution
[2] = Concentration of marker components (ginsenosides) in P. quinquefolium samples after gamma irradiation (HPLC); format: physicochemical; conditions: for concentration of marker components of P. quinquefolium (ginsenoside): mean ± SD, three repeats; for effect of gamma irradiation on concentration of marker components: 10 kGy and 15 kGy gamma irradiation, P. quinquefolium samples
Experimental: Samples of P. quinquefolium that have respectively received gamma irradiation in dosages of 0, 10, 15, and 20 kGy were analyzed to find out the concentration of marker components therein, with the samples that have not received gamma irradiation as the control group. To extract marker components from the samples for analysis, 10 g of the samples were taken and prepared in 50 ml of 70% aqueous methanol solution, and heated in a convection heater at 60° C. for 15 minutes, followed by centrifugation in order to obtain the extract solution. Subsequently, the residual of the samples were subjected to the above-mentioned procedure again, and the extracted solution from the two rounds of procedures were mixed together and filtered, followed by the addition of 70% aqueous methanol solution to bring the volume up to 100 ml; the resulted solution was then stored at −20° C. and analyzed within 3 days. Before carrying out the analysis of ingredients, an adequate amount of the resulted solution was underwent filtration through a 0.22 μm pore size membrane, and then 20 μl of the solution was injected into a high performance liquid chromatographer for analysis (HPLC, Waters model 2695) each time; the analyses were carried out in combination with UV light—Visible light sensor of Waters model 2487, and a silicon-based reverse phase C-18 column (Cosmosil 5C18-MS-II, 5 μm, 4.6×250 mm, Nacalai Tesque, Inc., Kyoto, Japan) was used for analyzing the marker components of P. quinquefolium in the solution. The marker components of P. quinquefolium tested in the experiment included ginsenoside Rb1, ginsenoside Rg1, ginsenoside Rc, ginsenoside Rd, and ginsenoside Re; the detection wavelength of UV light was 203 ηm. The solution of 15% aqueous phosphoric acid (H3PO4)—acetonitrile (CH3CN) (81:19 to 60:40) was used as the moving phase, and the moving phase was analyzed at 25° C. and 1.0 ml/min of flow velocity after being filtered with a 0.45 μm filtration membrane, so as to measure the concentration of the marker components in samples of P. quinquefolium that received various dosages of gamma irradiation.

[3] = P. quinquefolium samples containing 2 ppm PCNB, 20 kGy
[4] = 0 kGy gamma irradiation (control group)

| SMILES | concentration of marker components of P. quinquefolium (ginsenoside) [2, 4] | effect of gamma irradiation on concentration of marker components [2] | concentration of marker components of P. quinquefolium (ginsenoside) ([2]; 10 kGy gamma irradiation) | concentration of marker components of P. quinquefolium (ginsenoside) ([2]; 15 kGy gamma irradiation) | concentration of marker components of P. quinquefolium (ginsenoside) ([2]; 20 kGy gamma irradiation) | concentration of the remaining PCNB ([1]; 20 kGy) | concentration of the remaining PCNB as compared to before treatment ([1]; 20 kGy) | concentration of the remaining PCNB ([1]; 25 kGy) | concentration of the remaining PCNB as compared to before treatment ([1]; 25 kGy) | PCNB concentration as % of the original concentration [1, 3] | PCNB concentration remaining [1, 3] |
| --- | --- | --- | --- | --- | --- | --- | --- | --- | --- | --- | --- |
| O=[N+]([O-])c1c(Cl)c(Cl)c(Cl)c(Cl)c1Cl [PCNB, pentachloronitrobenzene] | – | – | – | – | – | 0.056 ppm | 2.79% | 0.008 ppm | 0.86% | 4.01% | 0.08 ppm |
| CC(C)=CCC[C@](C)(O[C@@H]1O[C@H](CO[C@@H]2O[C@H](CO)[C@@H](O)[C@H](O)[C@H]2O)[C@@H](O)[C@H](O)[C@H]1O)[C@H]1CC[C@]2(C)[C@@H]1[C@H](O)C[C@@H]1[C@@]3(C)CC[C@H](O[C@@H]4O[C@H](CO)[C@@H](O)[C@H](O)[C@H]4O[C@@H]4O[C@H](CO)[C@@H](O)[C@H](O)[C@H]4O)C(C)(C)[C@@H]3CC[C@]12C [Rb1, ginsenoside Rb1] | 31.37 ± 0.15^a) mg/g | would not affect | 31.01 ± 0.11 mg/g | 30.59 ± 0.63 mg/g | 29.39 ± 0.36 mg/g | – | – | – | – | – | – |
| CC(C)=CCC[C@](C)(O[C@@H]1O[C@H](CO)[C@@H](O)[C@H](O)[C@H]1O)[C@H]1CC[C@]2(C)[C@@H]1[C@H](O)C[C@@H]1[C@@]3(C)CC[C@H](O)C(C)(C)[C@@H]3[C@@H](O[C@@H]3O[C@H](CO)[C@@H](O)[C@H](O)[C@H]3O[C@@H]3O[C@@H](C)[C@H](O)[C@@H](O)[C@H]3O)C[C@]12C [Re, ginsenoside Re] | 15.98 ± 0.50 mg/g | would not affect | 15.79 ± 0.21 mg/g | 15.04 ± 0.33 mg/g | 14.53 ± 0.14 mg/g | – | – | – | – | – | – |

More lines, main results first:

| concentration of marker components of P. quinquefolium (ginsenoside) [2, 4] | effect of gamma irradiation on concentration of marker components [2] | concentration of marker components of P. quinquefolium (ginsenoside) ([2]; 10 kGy gamma irradiation) | concentration of marker components of P. quinquefolium (ginsenoside) ([2]; 15 kGy gamma irradiation) | concentration of marker components of P. quinquefolium (ginsenoside) ([2]; 20 kGy gamma irradiation) | SMILES | concentration of the remaining PCNB ([1]; 20 kGy) | concentration of the remaining PCNB as compared to before treatment ([1]; 20 kGy) | concentration of the remaining PCNB ([1]; 25 kGy) | concentration of the remaining PCNB as compared to before treatment ([1]; 25 kGy) | PCNB concentration as % of the original concentration [1, 3] | PCNB concentration remaining [1, 3] |
| --- | --- | --- | --- | --- | --- | --- | --- | --- | --- | --- | --- |
| 16.12 ± 0.47 mg/g | would not affect | 15.91 ± 0.43 mg/g | 15.08 ± 0.27 mg/g | 14.46 ± 0.28 mg/g | CC(C)=CCC[C@](C)(O[C@@H]1O[C@H](CO[C@@H]2O[C@@H](CO)[C@H](O)[C@H]2O)[C@@H](O)[C@H](O)[C@H]1O)[C@H]1CC[C@]2(C)[C@@H]1[C@H](O)C[C@@H]1[C@@]3(C)CC[C@H](O[C@@H]4O[C@H](CO)[C@@H](O)[C@H](O)[C@H]4O[C@@H]4O[C@H](CO)[C@@H](O)[C@H](O)[C@H]4O)C(C)(C)[C@@H]3CC[C@]12C [Rc, ginsenoside Rc] | – | – | – | – | – | – |
| 9.02 ± 0.32 mg/g | would not affect | 8.77 ± 0.15 mg/g | 8.44 ± 0.25 mg/g | 8.20 ± 0.17 mg/g | CC(C)=CCC[C@](C)(O[C@@H]1O[C@H](CO)[C@@H](O)[C@H](O)[C@H]1O)[C@H]1CC[C@]2(C)[C@@H]1[C@H](O)C[C@@H]1[C@@]3(C)CC[C@H](O[C@@H]4O[C@H](CO)[C@@H](O)[C@H](O)[C@H]4O[C@@H]4O[C@H](CO)[C@@H](O)[C@H](O)[C@H]4O)C(C)(C)[C@@H]3CC[C@]12C [Rd, ginsenoside Rd] | – | – | – | – | – | – |
| 1.56 ± 0.09 mg/g | would not affect | 1.56 ± 0.06 mg/g | 1.47 ± 0.03 mg/g | 1.43 ± 0.02 mg/g | CC(C)=CCC[C@](C)(O[C@@H]1O[C@H](CO)[C@@H](O)[C@H](O)[C@H]1O)[C@H]1CC[C@]2(C)[C@@H]1[C@H](O)C[C@@H]1[C@@]3(C)CC[C@H](O)C(C)(C)[C@@H]3[C@@H](O[C@@H]3O[C@H](CO)[C@@H](O)[C@H](O)[C@H]3O)C[C@]12C [Rg1, ginsenoside Rg1] | – | – | – | – | – | – |
